According to patent US8114850B2, “Antiproliferative activity of G-rich oligonucleotides and method of using same to bind to nucleolin” (Advanced Cancer Therapeutics, LLC, priority 1999, dated 2012):

Key:
[1] = system: DU145 cells; assay: MTT cell growth assay, DU145 cells; assay type: cell-based, human; details: 15 uM on day 1, half the initial dose on days 2-4; 3′-propylamino oligonucleotides; vs water control; FIG. 1A
Experimental: (§1) Cells were plated at low density ([…] cells per well, depending on cell line) in the appropriate serum-supplemented medium in 96-well plates (one plate per MTT assay time point) and grown under standard conditions of cell culture. The following day (day 1) oligonucleotide, or water as control, was added to the culture medium to give a final concentration of 15 uM. Further oligonucleotide, equivalent to half the initial dose, was added to the culture medium on days two, three and four.
(§2) Cells were assayed using the MTT assay (Morgan (1998) Methods. Mol. Biol. 79, 179-183) on days one, three, five, seven and nine after plating. The culture medium was not changed throughout the duration of the experiment (which was the time required for untreated cells to grow to confluence). Experiments were performed in triplicate and bars represent the standard error of the data.

[2] = system: MCF-7 cells; assay: MTT cell growth assay, MCF-7 cells; assay type: cell-based, human; details: 15 uM on day 1, half the initial dose on days 2-4; 3′-propylamino oligonucleotides; vs water control; FIG. 1D
Experimental: as §1, §2

[3] = biological target: T1, GRO-binding protein/nucleolin (HeLa nuclear extracts) (Homo sapiens, UniProt P19338); assay: EMSA of 32P-labeled oligonucleotides with HeLa nuclear extracts; details: 32P-labeled oligonucleotide, FIG. 6A
T1 construct: HeLa nuclear extracts used in EMSAs were purchased from Promega Inc. (bandshift grade); host or cells: HeLa nuclear extract (bandshift grade), purchased
Experimental: Oligonucleotides were 5′-labeled with 32p using T4 kinase. Labeled oligonucleotide (final concentration 1 nM, approximately 50,000 cpm) was preincubated for thirty minutes at 37° C. either alone or in the presence of unlabeled competitor oligonucleotide. Nuclear extracts were added, and the sample was incubated a further thirty minutes at 37° C. Both the preincubation and binding reactions were carried out in Buffer A (20 mM Tris. HCl pH 7.4, 140 mM KCl, 2.5 mM MgCl2, 1 mM dithiothreitol, 0.2 mM phenylmethyl sulfonyl fluoride and 8% (v/v) glycerol). Electrophoresis was carried out using 5% polyacrylamide gels in TBE buffer (90 mM Tris borate, 2 mM EDTA).
HeLa nuclear extracts used in EMSAs were purchased from Promega Inc. (bandshift grade). Nuclear and cytoplasmic extracts from MDA-MB-231 cells were prepared using the protocol described in F. M. Ausubel et al. Ausubel et al. (Eds.) (1996) Current Protocols in Molecular Biology, Wiley, N.Y., Section 12.1. Plasma membrane proteins were prepared from MDA-MB-231 cells using a method previously described. Yao et al. (1996) Biochemical Pharmacology 51, 431-436; Naito et al. (1988) J. Biol. Chem. 263, 11887-11891.
To investigate further the mechanism of the growth modulatory effects, binding of the oligonucleotides to cellular proteins was examined. […]

[4] = biological target: T1, GRO-binding protein/nucleolin (HeLa nuclear extracts); assay: UV cross-linking of oligonucleotides to HeLa nuclear extracts; details: labeled oligonucleotide with HeLa nuclear extracts; FIG. 6C
Experimental: For the UV crosslinking experiments, samples were incubated as described above (EMSA). They were then placed on ice and irradiated at 5 cm from the source using the “autocross link” function of a Stratagene UV Stratalinker. Following irradiation, samples were electrophoresed under denaturing conditions on a 8% polyacrylamide-SDS gel using a standard Tris glycine buffer and visualized by autoradiography.
To determine the approximate molecular weight of the protein involved in complex A, and to confirm that competition for this complex results from direct binding of the protein to oligonucleotides, a UV cross-linking study was conducted. 5′-Labeled oligonucleotides and HeLa nuclear extracts were incubated alone or in the presence of unlabeled competitor oligonucleotides.
The samples were then irradiated with UV light resulting in cross-link formation between protein residues and thymidines in the oligonucleotide. The protein was thus radiolabeled and could be detected on a SDS-polyacrylamide gel.

[5] = biological target: T2, 106 kDa nuclear protein (p106, GRO-binding protein/nucleolin) (Homo sapiens, UniProt P19338); assay: Southwestern blot of HeLa nuclear extracts; details: 32P-labeled oligonucleotide, 4° C.; FIG. 6D
T2 construct: HeLa nuclear extracts used in EMSAs were purchased from Promega Inc. (bandshift grade); host or cells: HeLa nuclear extract (bandshift grade), purchased
Experimental: Nuclear extracts were electrophoresed on a 8% polyacrylamide-SDS gel and transferred to polyvinylidene difluoride (PVDF) membrane by electroblotting using a Tris glycine/methanol (10% v/v) buffer. Immobilized proteins were denatured and renatured by washing for thirty minutes at 4° C. with 6 M guanidine. HCl followed by washes in 1:1, 1:2 and 1:4 dilutions of 6M guanidine in HEPES binding buffer (25 mM HEPES pH 7.9, 4 mM KCl, 3 mM MgCl2). The membrane was blocked by washing for one hour in a 5% solution of non-fat dried milk (NDM) in binding buffer.
Hybridization of the labeled oligonucleotide (1-4×10^6 cpm) took place for two hours at 4° C. in HEPES binding buffer supplemented with 0.25% NDM, 0.05% Nonidet P […] salmon sperm DNA and […] of an unrelated, mixed sequence 35-mer oligonucleotide (5′-[…] CTTCCTTCCTCTCCA-3′SEQ ID No: 19). Membranes were washed in binding buffer and visualized by autoradiography.
The molecular weight of the nuclear protein was more accurately determined by Southwestern blotting. HeLa nuclear extracts were electrophoresed on an 8% polyacrylamide-SDS gel and transferred to a PVDF membrane. The membrane was blocked and cut into strips. Each strip was incubated at 4° C. with a 32P-labeled G-rich oligonucleotide in the presence of unrelated unlabeled double stranded and single stranded DNA to block non-specific binding.

[6] = Detection of G-quartets by UV thermal denaturation/renaturation; assay type: physicochemical; details: absorbance at 295 nm; FIG. 4
Experimental: Oligonucleotides were resuspended in Tm buffer (20 mM Tris HCl, pH 8.0, 140 mM KCl, 2.5 mM MgCl2) at a concentration such that A260=0.6 (molar concentrations ranged from […]). Samples were annealed by boiling for five minutes and allowing to cool slowly to room temperature and overnight incubation at 4° C. Thermal denaturation/renaturation experiments were carried out using an Amersham Pharmacia Biotech Ultrospec 2000 instrument equipped with a Peltier effect heated cuvette holder and temperature controller (Amersham Pharmacia Biotech). Absorbance at 295 nm was monitored over a temperature range of 25-95 or 20-90° C. at a heating/cooling rate of 0.5° C./min. To investigate the formation of G-quartet structures by the G-rich oligonucleotides, a U.V. melting technique described by […] et al. (1998) FEBS Lett. 435, 74-78 was used. This method relies on the fact that dissociation of G-quartets leads to a decrease in absorbance at 295 nm and is reported to give a more reliable indication of intramolecular G-quartet formation than measurement at 260 nm.

T1 sequence (P19338 whole entry): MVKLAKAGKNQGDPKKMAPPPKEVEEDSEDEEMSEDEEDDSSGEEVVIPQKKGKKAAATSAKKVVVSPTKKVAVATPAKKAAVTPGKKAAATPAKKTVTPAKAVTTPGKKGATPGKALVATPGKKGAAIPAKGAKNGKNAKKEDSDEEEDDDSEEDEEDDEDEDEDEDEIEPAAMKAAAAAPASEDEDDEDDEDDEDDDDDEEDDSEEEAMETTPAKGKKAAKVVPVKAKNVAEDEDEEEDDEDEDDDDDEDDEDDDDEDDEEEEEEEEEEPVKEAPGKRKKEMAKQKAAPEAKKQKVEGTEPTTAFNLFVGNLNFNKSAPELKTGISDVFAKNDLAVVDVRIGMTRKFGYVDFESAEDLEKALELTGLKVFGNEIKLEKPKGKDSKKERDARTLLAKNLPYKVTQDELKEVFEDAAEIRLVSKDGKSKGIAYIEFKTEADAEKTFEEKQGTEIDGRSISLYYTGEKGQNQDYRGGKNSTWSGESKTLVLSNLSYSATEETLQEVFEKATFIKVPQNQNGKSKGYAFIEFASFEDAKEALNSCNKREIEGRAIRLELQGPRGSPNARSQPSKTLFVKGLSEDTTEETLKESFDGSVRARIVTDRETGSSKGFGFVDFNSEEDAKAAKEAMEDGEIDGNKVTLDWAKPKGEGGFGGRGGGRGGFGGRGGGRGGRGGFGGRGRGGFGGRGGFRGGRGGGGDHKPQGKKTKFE
T2 sequence (P19338 whole entry): as above

Substance	growth of DU145 cells (MTT) [1]	growth of MCF-7 cells (MTT) [2]	protein-oligonucleotide complex band (EMSA) [3]	UV cross-linked protein complex (approximately 100 kDa) [4]	hybridization to protein band at 106 kDa (Southwestern blot) [5]	G-quartet formation (UV annealing curve) [6]
5′-GTTGTTTGG GGTGGT-3′ (GTTGTTTGGGGTGGT; DNA, backbone not given here; further chemistry not fully specified) [GRO15A]	modulated proliferation	modulated proliferation	intense	crosslinked to a protein	hybridized to a single protein band at 106 kDa	suggestive of G-quartet formation
5′-TTTGGTGGTGGTGG TTGTGGTGGTGGTGG-3′ [GR029A]	modulated proliferation	modulated proliferation	intense	formed this approximately 100 kDa complex	hybridized to a single protein band at 106 kDa	clearly indicating the presence of G-quartets
